In BindingDB's records for PubMed 34752953 (Zhengzhou University, 2022):

Biological target: Indoleamine 2,3-dioxygenase 1 (Homo sapiens, UniProt P14902)
Assay: Inhibition of IDO1 (unknown origin)

Indoleamine 2,3-dioxygenase 1, sequence (P14902 whole entry): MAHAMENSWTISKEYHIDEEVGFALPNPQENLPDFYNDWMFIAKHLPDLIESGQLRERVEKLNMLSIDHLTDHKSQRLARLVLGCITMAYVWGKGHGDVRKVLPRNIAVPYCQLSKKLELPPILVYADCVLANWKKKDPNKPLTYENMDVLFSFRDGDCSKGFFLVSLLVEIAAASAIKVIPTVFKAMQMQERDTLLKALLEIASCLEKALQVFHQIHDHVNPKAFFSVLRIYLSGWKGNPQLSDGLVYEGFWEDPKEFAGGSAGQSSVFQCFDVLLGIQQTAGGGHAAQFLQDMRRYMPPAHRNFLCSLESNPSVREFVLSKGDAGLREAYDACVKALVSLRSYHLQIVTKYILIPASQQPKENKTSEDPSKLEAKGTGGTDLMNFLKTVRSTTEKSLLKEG

IC50: 11 nM
Structure (SMILES): O[C@@H](C[C@H]1c2sccc2-c2cncn21)C1CCC(F)(F)CC1
